Reference: PMC7845594, “Novel Immune Modulators Enhance Caenorhabditis elegans Resistance to Multiple Pathogens” (mSphere, 2021)

How the values were obtained:
[1] = tested on: glp-4(bn2) worms exposed to P. aeruginosa isolate PA2-61; test: Liquid killing assay with cystic fibrosis isolate; assay type: in vivo, Caenorhabditis elegans; details: isolate PA2-61, serial 2-fold dilutions from 50 µM to 12.5 μM
Method: We also tested these strains against a P. aeruginosa isolate from a pediatric cystic fibrosis patient, P. aeruginosa PA2-61, that we previously characterized ([22]).
The minimum effective concentration was calculated from the lowest concentration that retained statistically significant rescue of glp-4(bn2) C. elegans, a temperature-sensitive sterile strain, from exposure to P. aeruginosa PA14. […] Compounds were added in serial 2-fold dilutions from 50 µM to 12.5 μM. *, P < 0.05; **, P < 0.01; ***, P < 0.001. P values were calculated using Student’s t test. At least six wells containing 20 worms each per condition per replicate were used for determination of liquid killing. EC values were calculated based on at least three biological replicates. Error bars represent the standard error of the mean.
Liquid killing of C. elegans was performed as previously described with some changes ([91]). In brief, an overnight culture of LB medium was inoculated with a single colony of Pseudomonas aeruginosa strain PA14. Then, 400 µl of culture was spread onto a 10-cm slow-kill agar plate ([91]) and grown for 24 h at 37°C, followed by 24 h at 25°C. Bacteria were scraped from the plate, resuspended in S Basal medium, and added to 384-well plates with small molecules dissolved in DMSO. Solution in wells contained a final concentration of 40% SK media, 59% S Basal medium, 1% DMSO, and small molecules. For all liquid-based killing assays, solvent control wells contained 1% DMSO. MgSO4 and CaCl2 (300 µM) and cholesterol (1.6 µg/ml) were added to aid in production of virulence factors. Worms were sorted into 384-well plates using a COPAS FlowSort (Union Biometrica, Holliston, MA), incubated at 25°C until the DMSO control was roughly 35 to 55% dead, washed four times using an EL406 microplate washer (BioTek, VT), and stained with 50 μl of Sytox Orange at 1 µM to fluorescently stain dead worms. Wells were imaged in bright-field and RFP channels using the BioTek Cytation5, followed by image analysis using the CellProfiler software package to calculate fraction of dead worms in each well. […]

[2] = tested on: P. aeruginosa strain PA14; test: MIC assay (bacterial growth, no worms); assay type: cell-based, Pseudomonas aeruginosa
Method: For the first round of characterization, 69 novel small molecules previously selected on the basis of their ability to improve C. elegans survival during exposure to P. aeruginosa in liquid ([14]) were tested for the ability to interfere with bacterial growth. MICs were determined for each compound by growing P. aeruginosa strain PA14 in static culture in 384-well plates with serial 2-fold dilutions of compounds. No worms were used in these assays. Next, effective rescue concentrations (EC; defined as the minimum concentration that results in statistically significant survival, compared to dimethyl sulfoxide [DMSO]) ([15], [18]) were determined for each compound using the standard P. aeruginosa liquid killing assay. Sterile glp-4(bn2) worms were used in all liquid-based assays to limit artifacts (i.e., unlaid eggs will hatch and cause matricide).
Plates were allowed to grow for 24 h at 37°C without shaking. Growth was scored visually on the basis of turbidity. At least three biological replicates were performed.

SKN-1/Nrf pathway = test: gst-4p::GFP reporter; assay type: in vivo, Caenorhabditis elegans; details: 100 μM in 1% DMSO, no pathogen
Description: To test activation of these pathways, worms carrying GFP-based reporters for the SKN-1/Nrf, PMK-1/p38 MAPK, and DAF-16/FOXO pathways (gst-4p::GFP, irg-5p::GFP, and DAF-16::GFP, respectively) were exposed to each compound in S Basal medium in the absence of the pathogen.
FIG 4 A subset of LK molecules activates reporters for the SKN-1/Nrf2 or PMK-1/p38 MAPK pathways. […] Also present are DMSO and ethanol negative controls for LK compounds and juglone, respectively. The fluorescence intensity was normalized to that of DMSO. (B) Worms carrying an irg-5p::GFP reporter for PMK-1/p38 MAPK activity were incubated at 25, 50, or 100 μM in 1% DMSO. Positive and negative controls consisted of 100 μM RPW-24 in 1% DMSO and 1% DMSO alone. Fluorescence was measured at 24 h. For both panels, ∼50 worms were used per well, and at least three wells were used per condition for each biological replicate. Mean values from at least three biological replicates are shown. *, P < 0.05; **, P < 0.01; ***, P < 0.001 compared to the solvent control. P values were calculated using Student’s t test. Error bars represent the standard error of the mean.
Worms were washed three times prior to incubation with compounds or DMSO control and diluted in S Basal medium supplemented with E. coli OP50 (OD600 = 0.08) as a food source. The fluorescence fold increase for gst-4p::GPF was taken as the fluorescence of each well and was normalized to the well’s fluorescence at 0 h. irg-5p::GFP, hsp-16.1p::GFP, rpt-6p::GFP, and hsp-4::GFP fluorescence was quantified as the fluorescence/worm area. For gst-4p::GFP, 100 µM ethanol-solubilized juglone was used as a positive control. Ethanol was also tested at 1% (vol/vol) as a control. For irg-5p::GFP, RPW-24 (100 µM) was used as a positive control. For quantification of nuclear localization of GFP fusion reporters, worms were scored as either localization positive or localization negative. DAF-16::GFP worms were scored as localization positive if >5 nuclei within the worm had localized GFP. All worms were imaged at the L4-young adult stage. […]

[3] = tested on: C. elegans host defense pathway genes; test: nanoString expression of 115 immune- and stress-responsive genes; details: 100 μM LK molecules, 16 h
Outline: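 Wild-type young adult C. elegans (2,000 per condition) exposed to 100 μM LK molecules or DMSO control in S Basal medium for 16 h. RNA purified and expression of 115 immune- and stress-responsive genes quantified by nanoString; two biological replicates per condition.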

O=c1cc(CNc2ccc(Br)cc2)nc2sccn12 [LK56]
Dose dependence of rescue in liquid killing [1]: dose-dependent rescue
MIC ([2]; Pseudomonas aeruginosa, P. aeruginosa PA14, LB media, static culture, no worms, read-out: MIC): > 595 µM
MIC / EC ([2]; ratio of MIC to EC, P. aeruginosa PA14): > 81.5
gst-4p::GFP induction (SKN-1/Nrf activation) (SKN-1/Nrf pathway): not activated
B0024.4 expression, induction [3]: 2.13 fold
C02B4.2 nhr-17 expression, induction [3]: 1.97 fold
C06B3.7 expression, induction [3]: 1.14 fold
C07G3.2 irg-1 expression, induction [3]: 1.40 fold
C12C8.1 hsp-70 expression, induction [3]: 1.04 fold
C15F1.7 sod-1 expression, induction [3]: 2.09 fold
C29F7.2 expression, induction [3]: 14.61 fold
C31A11.5 oac-6 expression, induction [3]: 2.72 fold
C32D5.12 expression, induction [3]: 1.17 fold
C32H11.1 expression, induction [3]: 8.05 fold
C32H11.3 expression, induction [3]: 1.05 fold
C34G6.4 pgp-2 expression, induction [3]: 1.72 fold
C37C3.10 expression, induction [3]: 3.56 fold
C37H5.8 hsp-6 expression, induction [3]: 1.45 fold
C49G7.5 irg-2 expression, induction [3]: 2.13 fold
F08F8.5 numr-1 expression, induction [3]: 3.14 fold
F08H9.4 expression, induction [3]: 1.04 fold
F14F9.3 expression, induction [3]: 1.84 fold
F22B5.4 expression, induction [3]: 2.10 fold
F22H10.2 expression, induction [3]: 1.87 fold
F26A3.4 expression, induction [3]: 1.98 fold
F35E8.11 cdr-1 expression, induction [3]: 47.99 fold
F35G2.4 phy-2 expression, induction [3]: 1.43 fold
F37B12.2 gcs-1 expression, induction [3]: 1.20 fold
F43E2.8 hsp-4 expression, induction [3]: 1.17 fold
F44E5.5 expression, induction [3]: 1.42 fold
F49F1.6 expression, induction [3]: 1.76 fold
F49F1.7 expression, induction [3]: 4.06 fold
F49H6.13 expression, induction [3]: 1.42 fold
F54B8.4 expression, induction [3]: 3.28 fold
F55G11.2 expression, induction [3]: 2.09 fold
F59A7.1 clec-206 expression, induction [3]: 12.55 fold
F59B10.4 expression, induction [3]: 1.53 fold
H12D21.1 nspa-1 expression, induction [3]: 2.13 fold
H23N18.1 ugt-13 expression, induction [3]: 4.36 fold
H23N18.3 ugt-8 expression, induction [3]: 20.66 fold
K05B2.4 expression, induction [3]: 2.91 fold
K08F4.7 gst-4 expression, induction [3]: 1.69 fold
K09A9.1 nipi-3 expression, induction [3]: 2.25 fold
K10D11.2 expression, induction [3]: 1.72 fold
K10G4.3 expression, induction [3]: 1.36 fold
R03D7.6 gst-5 expression, induction [3]: 23.60 fold
R08H2.1 dhs-23 expression, induction [3]: 182.18 fold
R10E8.3 expression, induction [3]: 1.01 fold
T19D12.3 expression, induction [3]: 2.00 fold
T19H12.1 ugt-9 expression, induction [3]: 6.54 fold
T21E8.1 pgp-6 expression, induction [3]: 0.89 fold
T22B7.3 expression, induction [3]: 1.38 fold
T24C4.4 expression, induction [3]: 1.93 fold
T24E12.5 expression, induction [3]: 2.19 fold
T27E4.3 hsp-16.48 expression, induction [3]: 1.38 fold
T27E4.8 hsp-16.1 expression, induction [3]: 1.30 fold
T27F6.8 expression, induction [3]: 2.98 fold
T28C12.4 expression, induction [3]: 7.67 fold
W02D9.10 expression, induction [3]: 2.27 fold
Y22D7AL.5 hsp-60 expression, induction [3]: 1.56 fold
Y38E10A.15 nspe-7 expression, induction [3]: 0.87 fold
Y46H3A.2 hsp-16.41 expression, induction [3]: 1.11 fold
Y46H3A.3 hsp-16.2 expression, induction [3]: 1.21 fold
Y56A3A.33 expression, induction [3]: 2.67 fold
Y58A7A.5 expression, induction [3]: 1.53 fold
ZC376.7 atfs-1 expression, induction [3]: 1.86 fold
ZC443.6 ugt-16 expression, induction [3]: 27.68 fold
ZK697.6 gst-21 expression, induction [3]: 8.40 fold
